Laboratory results: US4760136A, “Chartreusin derivatives and salts thereof” (Ishihara Sangyo Kaisha, Ltd., priority 1984, dated 1988)

Columns and labels:
P-388 leukemia cells = experiment: Antitumor activity: P-388 leukemia cells inoculated intraperitoneally, drug administered intravenously, BDF1 mice; type: in vivo
Procedure, shortened: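 Drug dosing was intravenous on the first, fifth and ninth days after intraperitoneal inoculation of P-388 leukemia cells (1×10^6 per mouse) into BDF1 mice. Vehicles were physiological saline alone, or saline with small amounts of sodium carboxymethyl cellulose or Tween-80.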

P-388 leukemia = conditions: i.p. inoculation, i.p. administration; cited from earlier work
L-1210 leukemia = conditions: i.p. inoculation, i.p. administration; cited from earlier work
B-16 melanoma = conditions: i.p. inoculation, i.p. administration; cited from earlier work
cancer = conditions: different sites; cited from earlier work
ddY mice = experiment: Acute toxicity, intravenous (once), ddY mice; type: in vivo; conditions: formulated per Preparation Example
Text: In Table 7 are shown acute toxicity values (LD50, mg/kg) in ddY mice in the case of intravenously administering (once) each of the compounds of this invention in the form of preparations shown in the Preparation Examples shown in Table 7.

| Compound | T/C (%) (P-388 leukemia cells; 50 mg/kg/day x 3, suspension in 0.2M Na2HPO4 / N,N-dimethylacetamide (4:1), comparison) | antitumorous activity against P-388 leukemia (P-388 leukemia) | antitumorous activity against L-1210 leukemia (L-1210 leukemia) | antitumorous activity against B-16 melanoma (B-16 melanoma) | antitumorous activity when site of cancer inoculation and site of administration were different (cancer) | response vs control in vivo at 80 mg/kg (P-388 leukemia cells; Mus musculus, P388, iv, dose f: 80 mg/kg × 3, i.v. on days 1, 5 and 9, BDF1 mice, P-388 i.p., read-out: T/C (%) of MST) [%] | LD50 (ddY mice) [mg/kg] |
| --- | --- | --- | --- | --- | --- | --- | --- |
| CO[C@H]1[C@@H](O)[C@@H](C)O[C@H](O[C@H]2[C@H](Oc3cccc4c(O)c5c(=O)oc6ccc(C)c7c(=O)oc(c34)c5c67)O[C@H](C)[C@H](O)[C@@H]2O)[C@@H]1O [chartreusin] | 105 | effective | effective | effective | not effective at all |  |  |
| CCCC(=O)Oc1c2cccc(OC3OC(C)C4OC(c5ccccc5)OC4C3OC3OC(C)C(O)C(OC)C3O)c2c2oc(=O)c3c(C)ccc4oc(=O)c1c2c43 (stereo not shown) [compound 212, 6-O-(n-butyryl)-3',4'-O-benzylidene-chartreusin] |  |  |  |  |  | 153 | ≥ 80 |
